One assay addresses BACE1 (Homo sapiens, UniProt P56817). The experiment in a line: In vitro enzymatic BACE FRET (fluorescence resonance energy transfer) assay. The format is biochemical. An outline of the steps:
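Cleavage of a quenched peptide FRET substrate (50 nM) in 0.05 M acetate pH 4.2, 10% DMSO, 100 uM genapol, 1 h incubation. Reaction stopped by Tris neutralization; fluorescence read at excitation 488 nm / […].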

Assay [1] has as its system Cells stably expressing Amyloid Precursor Protein (APP). The experiment in a line: In vitro BACE cell-based assay (HEK cell assay): Aβ40 in conditioned medium by sandwich ELISA. The conditions noted are these: Homo sapiens, HEK293, 24 h, Aβ40 in conditioned medium after 24 h incubation. The protocol:
In Vitro BACE Cell-Based Assay:
The cell-based assay measures inhibition or reduction of Aβ40 in conditioned medium of test compound treated cells expressing amyloid precursor protein.
Cells stably expressing Amyloid Precursor Protein (APP) were plated at a density of 40K cells/well in 96 well plates (Costar). The cells were cultivated for 24 hours at 37° C. and 5% CO2 in DMEM supplemented with 10% FBS. The test compounds were then added to cells in 10-point dose response concentrations with the starting concentration being either 100 μM or 10 μM. The compounds were diluted from stock solutions in DMSO and the final DMSO concentration of the test compounds on cells was 0.1%. After 24 h of incubation with the test compounds the supernatant conditioned media was collected and the Aβ 40 levels were determined using a sandwich ELISA. The IC50 of the compound was calculated from the percent of control or percent inhibition of Aβ 40 as a function of the concentration of the test compound.
The sandwich ELISA to detect Aβ 40 was performed in 96 well microtiter plates, which were pre-treated with goat anti-rabbit IgG (Pierce). The capture and detecting antibody pair that were used to detect Aβ 40 from cell supernatants were affinity purified pAb40 (Biosource) and biotinylated 6E10 (Signet Labs Inc.), respectively. The optimal concentration for the pAb40 antibody was 3 μg/ml in Superblock/TBS (Pierce) that was supplemented with 0.05% Tween 20 (Sigma). Optimal concentration for the detection antibody 6E10-biotinylated was 0.5 μg/ml in Superblock/TBS (Pierce) that had been supplemented with 2% normal goat serum and 2% normal mouse serum.
Cellular supernatants were incubated with the capture antibody for 3 h at 4° C., followed by 3 wash steps in TBS-tween (0.05%). The detecting antibody incubation was for 2 h at 4° C., again followed by the wash steps as described previously. The final readout of the ELISA is Time-Resolved Fluorescence (counts per minute) using Delfia reagents Streptavidin-Europium and Enhancement solutions (Perkin Elmer) and the Victor 2 multilabel counter (Perkin Elmer).
Of the compounds tested, in-the cell-based assay, data for each of Examples 33-156 is provided in Table 1 and Examples 208-246 are provided in Table 4.

pIC50: −log10 of the molar value.

BACE1, sequence (P56817 46-501, species assumed): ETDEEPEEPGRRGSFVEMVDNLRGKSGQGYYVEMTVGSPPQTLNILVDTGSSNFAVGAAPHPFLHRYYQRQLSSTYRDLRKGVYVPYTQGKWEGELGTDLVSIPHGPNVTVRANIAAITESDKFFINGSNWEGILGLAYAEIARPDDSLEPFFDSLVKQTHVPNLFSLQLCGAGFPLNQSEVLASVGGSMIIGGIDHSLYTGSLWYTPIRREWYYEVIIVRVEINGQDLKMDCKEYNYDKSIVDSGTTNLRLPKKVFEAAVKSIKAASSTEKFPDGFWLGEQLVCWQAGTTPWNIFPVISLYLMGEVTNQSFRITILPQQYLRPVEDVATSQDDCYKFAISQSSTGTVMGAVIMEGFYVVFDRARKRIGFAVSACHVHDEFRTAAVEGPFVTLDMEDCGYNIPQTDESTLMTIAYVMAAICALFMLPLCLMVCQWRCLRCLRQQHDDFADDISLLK

Consider `C=CC[C@H](NC(=O)c1c(F)ccc(F)c1F)[C@H](O)CN[C@H]1CC2(CCC2)Oc2ncc(CC(C)(C)C)cc21` [Example 75, N-((1S)-1-((1R)-2-(((4′S)-6′-(2,2-dimethylpropyl)-3′,4′-dihydrospiro[cyclobutane-1,2′-pyrano[2,3-b]pyridin]-4′-yl)amino)-1-hydroxyethyl)-3-buten-1-yl)-2,3,6-trifluorobenzamide], for which the negative logarithm of the IC50 (pIC50) is 6.60 at BACE1 and 6.44 in assay [1].

For `C=CC[C@H](NC(=O)c1cccc(F)c1)[C@H](O)CN[C@H]1CC2(CCC2)Oc2ncc(CC(C)(C)C)cc21` [Example 64, N-((1S)-1-((1R)-2-(((4′S)-6′-(2,2-dimethylpropyl)-3′,4′-dihydrospiro[cyclobutane-1,2′-pyrano[2,3-b]pyridin]-4′-yl)amino)-1-hydroxyethyl)-3-buten-1-yl)-3-fluorobenzamide], the negative logarithm of the IC50 (pIC50) was 6.43 at BACE1 and 5.59 in assay [1].

On to `C=CC[C@H](NC(=O)COC)[C@H](O)CN[C@H]1CC2(CCC2)Oc2ncc([C@H](F)C(C)(C)C)cc21` [Example 82, N-((1S)-1-((1R)-2-(((4′S)-6′-((1R)-1-fluoro-2,2-dimethylpropyl)-3′,4′-dihydrospiro[cyclobutane-1,2′-pyrano[2,3-b]pyridin]-4′-yl)amino)-1-hydroxyethyl)-3-buten-1-yl)-2-(methyloxy)acetamide], for which the negative-log IC50 (pIC50) is 7.16 at BACE1 and 6.67 in assay [1].

On to `C=CC[C@H](NC(=O)c1cncn1C)[C@H](O)CN[C@H]1CC2(CCC2)Oc2ncc(CC(C)(C)C)cc21` [Example 131, N-((1S)-1-((1R)-2-(((4′S)-6′-(2,2-dimethylpropyl)-3′,4′-dihydrospiro[cyclobutane-1,2′-pyrano[2,3-b]pyridin]-4′-yl)amino)-1-hydroxyethyl)-3-buten-1-yl)-1-methyl-1H-imidazole-5-carboxamide], for which the pIC50 at BACE1 is 6.43; in assay [1] it was 7.19.

Take `C=CC[C@H](NC(=O)c1cocn1)[C@H](O)CN[C@H]1CC2(CCC2)Oc2ncc(CC(C)(C)C)cc21` [Example 129, N-((1S)-1-((1R)-2-(((4′S)-6′-(2,2-dimethylpropyl)-3′,4′-dihydrospiro[cyclobutane-1,2′-pyrano[2,3-b]pyridin]-4′-yl)amino)-1-hydroxyethyl)-3-buten-1-yl)-1,3-oxazole-4-carboxamide]: the negative-log IC50 (pIC50) at BACE1 was 6.65; in assay [1], 5.98.

As to `C=CC[C@H](NC(=O)c1c(F)cc(F)cc1F)[C@H](O)CN[C@H]1CC2(CCC2)Oc2ncc(CC(C)(C)C)cc21` [Example 78, N-((1S)-1-((1R)-2-(((4′S)-6′-(2,2-dimethylpropyl)-3′,4′-dihydrospiro[cyclobutane-1,2′-pyrano[2,3-b]pyridin]-4′-yl)amino)-1-hydroxyethyl)-3-buten-1-yl)-2,4,6-trifluorobenzamide], the pIC50 on BACE1 was 6.19; in assay [1], 5.52.

As for `C=CC[C@H](NC(C)=O)[C@H](O)CN[C@H]1CC2(CCC2)Oc2ncc(CC(C)(F)F)cc21` [Example 120, N-((1S)-1-((1R)-2-(((4′S)-6′-(2,2-difluoropropyl)-3′,4′-dihydrospiro[cyclobutane-1,2′-pyrano[2,3-b]pyridin]-4′-yl)amino)-1-hydroxyethyl)-3-buten-1-yl)acetamide], the pIC50 on BACE1 is 6.71; in assay [1], 7.19.

For the compound `C=CC[C@H](NC(=O)c1cc(F)c(F)cc1F)[C@H](O)CN[C@H]1CC2(CCC2)Oc2ncc(CC(C)(C)C)cc21` [Example 77, N-((1S)-1-((1R)-2-(((4′S)-6′-(2,2-dimethylpropyl)-3′,4′-dihydrospiro[cyclobutane-1,2′-pyrano[2,3-b]pyridin]-4′-yl)amino)-1-hydroxyethyl)-3-buten-1-yl)-2,4,5-trifluorobenzamide], the pIC50 is 6.36 on BACE1 and 5.48 in assay [1].

(Values after patent US8633315B2, “Substituted hydroxyethyl amine compounds as beta-secretase modulators and methods of use” (Amgen Inc., priority 2007, dated 2014).)
